Experimental data published in the METLIN SMRT retention time set (Domingo-Almenara et al. 2019).

Experiment: gradient 5% acetonitrile 3 min, to 50% in 2 min, to 85% in 15 min, held 3 min, 100 µL/min
Details: column: Zorbax Extend-C18 2.1 x 50 mm; eluents: water / acetonitrile, 0.1% formic acid
How it was run: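 Retention time was recorded from adduct peaks, which were picked computationally and each inspected manually. Pure standards ran in mixtures of ~100 molecules on HPLC coupled to a quadrupole time-of-flight mass spectrometer, in positive and negative ionization mode, through a Zorbax Extend-C18 column (2.1 × 50 mm, 1.8 μm) at 100 μL/min. Eluents were water and acetonitrile, each with 0.1% formic acid.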

SMILES | RP-LC retention time [s]
CCc1ccc2oc(C(=O)NCC(c3ccccc3)N(C)C)cc(=O)c2c1 (stereo unspecified) | 642
O=C(NC1CC1)c1ccc(OCC2CCCN2C(=O)c2cccc(F)c2)cc1 (stereo unspecified) | 778
O=C(c1ccccc1)c1ccc[nH]1 | 842
O=S(=O)(c1ccccc1Cl)N1CCC(c2noc(COCc3ccccc3)n2)CC1 | 1100
CCN1CCN(c2ccc(N3CCCC(C(=O)N4CCN(c5ccccn5)CC4)C3)nn2)CC1 (stereo unspecified) | 574
Cc1oc(-c2ccc(C(=O)N3CCN(c4ccccn4)CC3)cc2)nc1CN1CCc2ccccc21 | 766
CCCOc1ccc(S(=O)(=O)NCC2CCN(C(=O)c3ccccc3F)CC2)cc1C | 598
CCSc1nnc(-c2nn(C)c3c2CN(C(=O)c2ccccc2Cl)CC3)n1C | 747
COc1ccc(-c2cn3c(CC(=O)Nc4cccc(C#N)c4)csc3n2)cc1OC | 704
CN1C(=O)CSc2cnn(CC(=O)NC3CCCCC3)c(=O)c21 | 646
CCOCCCNC(=O)C1CCCN(c2nnc(C)c3c(C)n(-c4ccc(OC)cc4)nc23)C1 (stereo unspecified) | 665
O=C(NCCN1CCN(S(=O)(=O)c2ccccc2)CC1)c1c(F)cccc1Cl | 574
COC(=O)c1ccc2c(=O)n(-c3ccccc3)c(N3CCCCC3)nc2c1 | 1170
O=C(CN1C(=O)C(C(=O)N2CCCC2)Sc2ccccc21)Nc1cccc(Cl)c1 (stereo unspecified) | 1080
CCC(=O)N1CCc2c(C(=O)N3CCN(c4ccccc4F)CC3)cccc21 | 872
CCOC(=O)c1cnc2nc(C)ccc2c1Nc1cccc(Cl)c1 | 752
COc1cccc(NC(=O)C2(C)Oc3cccnc3N(C)C2=O)c1 (stereo unspecified) | 808
CC1=NS(=O)(=O)N(Cc2ccccc2)C=C1C(=O)OCc1ccc(Cl)cc1 | 1160
CC(=O)c1cccc(NC(=O)Cn2c(=O)n(-c3ccccc3)c(=O)c3c2cc(C)n3C)c1 | 763
CC(Cc1ccco1)NC(=O)c1nc(Nc2ccc(F)cc2)c2ccccc2n1 (stereo unspecified) | 855
O=C(CN1CCCCC1c1nc(-c2cccc(F)c2)no1)Nc1ccc(F)cc1 (stereo unspecified) | 1130
CC(C)(C)C(=O)Nc1ccc(N2CCN(CCC#N)CC2)cc1C(=O)O | 611

SMILES | RP-LC retention time [s]
Cn1c(=O)n(C)c2cc(N3CCCC3)c(NC(=O)Cc3ccccc3)cc21 | 670
COc1ccc(CN2C[C@@H]3C(=O)N(CCc4ccccc4)C(=O)[C@@H]3C2)c(OC)c1 | 728
Cc1cc2c(cc1CNC(=O)c1cc3c(cc1C)OCCCO3)OCCO2 | 846
CCN1C(=O)c2cc(C(=O)Nc3ccc(C)cc3C)nn2CC1(C)C(=O)NC1CCCC1 (stereo unspecified) | 800
COc1cc(OC)cc(C(=O)N2CCCC2c2nc(-c3cccc(C(F)(F)F)c3)no2)c1 (stereo unspecified) | 1120
O=C(Cn1ccn2nc(-c3ccccc3)c(CO)c2c1=O)NCc1ccc2c(c1)OCO2 | 738
COc1cccc(-c2cc3n(n2)CCCN(C(=O)c2ccsc2)C3)c1 | 714
CCCn1nnc2cc(-c3noc(C4CC(=O)N(c5ccc(C)c(C)c5)C4)n3)ccc21 (stereo unspecified) | 1020
CCc1ccc2c(c1)cc(S(=O)(=O)c1ccccc1)c(=O)n2CC(=O)NC(C)CC (stereo unspecified) | 945
CN(C)CC(=O)N1CCC(Oc2nccnc2N2CCOCC2)C1 (stereo unspecified) | 561
CC1CC(C)CN(c2nccn3c(=O)n(CC(=O)Nc4ccc(F)cc4F)nc23)C1 (stereo unspecified) | 902
Cn1ncc(N2CCCC(CC(=O)N3CCC4(CC3)OCCO4)C2)cc1=O (stereo unspecified) | 625
CC(C)NC(=O)c1c(OCC2CC2)cc(=O)n2c1CCCCC2 | 673
c1cc(-c2noc(C3CCOCC3)n2)ccc1OC1CNC1 | 640
Cc1ccccc1Cc1nc(-c2ccc3c(c2)nnn3CCN2CCOCC2)no1 | 692
Cc1ccc(S(=O)(=O)N2CC(F)(F)C[C@H]2CN2CCc3ccccc3C2)cc1 | 766
O=C(NCCc1csc(-c2ccc(F)cc2)n1)c1ccc2c(c1)OCO2 | 908
CCn1ccc2c(cc(C(=O)Nc3ccc(OC)cc3)n2C)c1=O | 706
Cc1onc(-c2ccccc2Cl)c1C(=O)N1CCC2(CC1)CC(=O)c1ccccc1O2 | 858
Cc1ccc2c(c1)N(C(=O)Cn1cnc3nc4c(cc3c1=O)CCCC4)CCO2 | 782
Cc1cc2nn(CC(=O)Nc3ccc(F)cc3F)c(=O)n2c(Nc2ccc(F)c(C)c2)n1 | 1060
COc1ccc(NC(=O)C2CCCN(c3cnc4nccnc4c3)C2)c(C)c1 (stereo unspecified) | 693

SMILES | RP-LC retention time [s]
Cc1ccc2ccc3ccc(C)nc3c2n1 | 589
Cc1cc(NC(=O)CCc2nc(CSc3nnc(-c4ccccc4)o3)no2)ccc1Br | 1040
Cc1cccc(C(=O)N2CCC3(CC2)NC(=O)c2cc(F)ccc2N3C)c1 | 779
O=C1NCCCn2cc(S(=O)(=O)Nc3ccc(F)cc3)cc21 | 639
Cc1cc(S(=O)(=O)N2CCN(c3nc4ccncc4n(C)c3=O)CC2)ccc1F | 682
Cc1cccc(N2CC(C(=O)NC3CC3)CC2=O)c1 (stereo unspecified) | 671
CCc1ccccc1S(=O)(=O)N(C)CC1CCOCC1 | 902
Fc1cc(F)cc(-c2nnc(Cc3nc(-c4ccncc4)no3)o2)c1 | 780
CC1CCC(NC(=O)C2CCCN(C(=O)c3cc(-c4cccnc4)n[nH]3)C2)CC1 (stereo unspecified) | 636
O=C(Cn1cccc1-c1nnc(C2CC2)o1)NCc1ccc2c(c1)OCO2 | 749
CC1=C(c2ccc(F)cc2)S(=O)(=O)N=C1N1CCC(NC(=O)C2CCOC2)CC1 (stereo unspecified) | 664
CN1CCC(OC2CCN(C(=O)c3ccc(F)cc3Cl)CC2)CC1 | 583
COCCC(=O)N1CCCn2nc(-c3cccc(OC)c3)cc2C1 | 644
CCCn1cc(C(=O)Nc2cccc(OC)c2)c(=O)c2ccc(C)nc21 | 1130
O=C(CCNc1cnc2cnccn12)NCc1ccc(F)c(Cl)c1 | 601
COc1cc2c(cc1OC)C(C(=O)NCCN(C)C)C(c1ccccc1F)N(C)C2=O (stereo unspecified) | 599
O=C(CSc1nnc(CNC(=O)c2ccc(F)cc2)o1)NCc1ccc2c(c1)OCO2 | 672
O=C(Cc1ccccc1)NC1CCN(c2cc(-c3cccs3)[nH]n2)C1 (stereo unspecified) | 741
CCOCCCNC(=O)c1nnc(-c2ccc(S(=O)(=O)N3CCCC3)cc2)o1 | 786
CC(=O)c1ccc(NC(=O)Cn2c(-c3ccc(F)cc3)nc(C)cc2=O)cc1 | 953
CCc1ccc(C2=C(C)C(N3CCCN(C(=O)NC(C)(C)C)CC3)=NS2(=O)=O)cc1 | 928
Cc1ccc(CN2C(=O)COc3ccc(C(=O)NC(C)(C)C)cc32)cc1 | 910
